Measurements from patent US10450322B2, “Low molecular weight derivatives of carboxamide halogenated porphyrins, namely chlorins and bacteriochlorins, and their applications thereof” (LUZITIN, S.A., priority 2015, dated 2019).

Legend:
[1] = test system: P. acnes (ATCC 6919); assay: In vitro phototoxicity towards Propionibacterium acnes; type: cell-based; conditions: 2 μM, 30 min incubation, irradiated with 10 J/cm^2
Protocol: Phototoxicity towards bacteria was evaluated in vitro against P. acnes (ATCC® 6919—Remel, Lenexa, Kans., USA) using light with the appropriate wavelength. P. acnes bacteria was cultured in Reinforced Clostridial Medium (Oxoid, Basingstok, UK) under anaerobic atmosphere at 37° C. Anaerobic growth conditions were obtained using an anaerobic jar with a sachet for anaerobic conditions generation (Anaerocult A, Merck, Darmstadt, Germany). P. acnes suspension was diluted with culture medium to an optical density at 620 nm of 1.3, corresponding to approximately […] CFU/ml (colony-forming units per milliliter). The diluted suspension was centrifuged at 13000 rpm for 10 minutes, and re-suspended in PBS. Test compound stock solutions were dissolved in PEG400:DMSO ([…] 400:dimethyl sulfoxide) (55:45) and were diluted to the appropriate concentrations with PBS. The incubation of the test compounds with P. acnes was performed in DB Falcon black 96-well plates with clear flat-bottom (Franklin Lakes, N.J., USA), in the absence of light, during 30 minutes. […] After the incubation period, the viability of P. acnes was evaluated. […] The phototoxicity was measured according to the description in the Materials and Methods section. […]

[2] = test system: CT26 (mouse colon adenocarcinoma) cell line; assay: In vitro phototoxicity / dark toxicity towards CT26 cells; type: cell-based
Protocol: Phototoxicity towards cancer cell lines was evaluated in vitro using A549 (human lung adenocarcinoma) and CT26 (mouse colon adenocarcinoma) cell lines. The cells were cultured in Dulbecco's modified Eagles's medium (DMEM) supplemented with 10% heat-inactivated fetal bovine serum and 1% penicillin. Cells were plated at a density of 20,000/well and 15,000/well respectively, in flat-bottom 96-well plates. On the following day, diluted solutions of the test compound were prepared (1 mM stock) and added to the cells for 30-min incubation. […] The wells were washed two times with PBS and irradiated after 30-min of incubation using the LED light described above. Light dose was 1 J/cm^2. The medium was replaced with fresh one after irradiation and the plates were incubated for 24 h, at which time the cellular viability was assessed by resazurin method using a microplate spectrophotometer (Synergy HT Biotek).
This example describes the evaluation of in vitro phototoxicity of a carboxamide bacteriochlorin with formula IX after light irradiation, and their potential for PDT of cancer. The formulation employed was the same as that of Example 4. […] The phototoxicity was measured according to the description in the Materials and Methods section. The phototoxicity of the test compound was assessed in terms of the percentage of survival of the cells for various concentrations of the test compound incubated for 30 min, followed by washings with PBS, addition of the culture medium and illumination with a light dose of 1 J/cm^2.

CNC(=O)c1c2nc(c(-c3c(F)cccc3F)c3ccc(cc4nc(c(-c5c(F)cccc5F)c5ccc1[nH]5)CC4)[nH]3)CC2 [formula IX, 5-methylcarboxamide-10,20-bis-(2,6-difluorophenyl)bacteriochlorin]
log CFU P. Acnes (reduction of bacterial CFU, orders of magnitude) [1]: 9 log CFU
IC50 ([2]; 30 min incubation, irradiated with 1 J/cm^2): 5.8 nM
photosensitizer concentration at which nearly all cells are killed ([2]; CT26, 30 min incubation, 1 J/cm^2 (FIG. 6)): 50 nM
concentration with no signs of toxicity in the dark ([2]; CT26, incubation in the dark for 30 min): up to 40 μM
